The record followed here is patent publication US9434711B2 (Janssen Pharmaceutica, NV, priority 2007, dated 2016).

Where two headings read alike, the source gives them in different places.

The test concerns the target canine TRPM8 (Canis lupus familiaris, UniProt Q1A7N1). Briefly: In Vitro Canine TRPM8 Functional Assay (Ca2+ fluorescence, icilin activation). In kind it is cell-based. The note with it: for IC50: read-out: IC50; for inhibition at 0.2 µM: read-out: % Inh @ 0.2; for inhibition at 0.5 µM: compound at 0.5 μM, read-out: % Inh @ 0.5. In outline:
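Readout is the intracellular Ca2+ fluorescence change, measured by FLIPR or FDSS, in HEK293 cells stably expressing canine TRPM8. Potency (EC50 or IC50) is fitted from eight concentrations averaged over quadruplicate wells.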

Where [1] appears, read: 0.2 μM compound, HEK293 cells stably expressing canine TRPM8, icilin activation.
[2] abbreviates: HEK293 cells stably expressing canine TRPM8, icilin activation, average of two or more determinations.
Where [3] appears, read: compound at 0.2 μM, canine TRPM8, icilin activation.
The mark [4] stands for this setting: HEK293 cells stably expressing canine TRPM8, icilin activation, eight-point dose-response.
The mark [5] stands for this setting: canine TRPM8, icilin activation.

Sequence of canine TRPM8 (Q1A7N1 1-1104): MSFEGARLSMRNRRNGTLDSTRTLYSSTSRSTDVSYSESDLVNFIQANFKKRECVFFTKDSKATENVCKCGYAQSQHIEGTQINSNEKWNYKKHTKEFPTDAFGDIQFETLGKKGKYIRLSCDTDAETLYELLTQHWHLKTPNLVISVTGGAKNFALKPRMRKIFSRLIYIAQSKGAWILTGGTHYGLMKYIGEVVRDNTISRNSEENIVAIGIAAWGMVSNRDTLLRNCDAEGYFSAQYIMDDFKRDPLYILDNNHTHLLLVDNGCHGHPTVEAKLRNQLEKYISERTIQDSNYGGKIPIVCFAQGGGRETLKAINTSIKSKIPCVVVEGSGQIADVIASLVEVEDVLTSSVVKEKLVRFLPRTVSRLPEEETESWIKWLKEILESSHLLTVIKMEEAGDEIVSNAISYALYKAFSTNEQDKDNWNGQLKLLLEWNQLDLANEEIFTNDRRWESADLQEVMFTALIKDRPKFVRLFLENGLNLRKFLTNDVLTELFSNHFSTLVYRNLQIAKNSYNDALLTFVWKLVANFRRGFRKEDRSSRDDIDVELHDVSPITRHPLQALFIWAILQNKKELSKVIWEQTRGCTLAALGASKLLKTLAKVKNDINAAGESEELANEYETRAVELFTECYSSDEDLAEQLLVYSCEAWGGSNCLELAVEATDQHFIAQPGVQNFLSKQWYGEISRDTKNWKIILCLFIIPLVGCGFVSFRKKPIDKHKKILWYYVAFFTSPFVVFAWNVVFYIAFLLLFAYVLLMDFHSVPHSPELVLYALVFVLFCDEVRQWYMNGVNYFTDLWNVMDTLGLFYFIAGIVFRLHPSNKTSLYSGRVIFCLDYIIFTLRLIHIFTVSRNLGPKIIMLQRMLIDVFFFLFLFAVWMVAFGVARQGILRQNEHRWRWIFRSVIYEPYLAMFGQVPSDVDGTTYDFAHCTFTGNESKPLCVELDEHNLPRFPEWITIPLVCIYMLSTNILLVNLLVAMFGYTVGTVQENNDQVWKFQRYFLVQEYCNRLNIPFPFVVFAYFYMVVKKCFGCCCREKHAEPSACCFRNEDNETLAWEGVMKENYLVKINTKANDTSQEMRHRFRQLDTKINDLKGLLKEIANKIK

Broadly, the IC50 is the midpoint of a concentration-inhibition curve. For the compound “N-(3-Methyl-benzo[b]thiophen-2-yl)-N-(5,5,5-trifluoro-pentyl)-4-(5-oxo-4,5-dihydro-[1,2,4]oxadiazol-3-yl)-pyrid-3-ylsulfonamide [Compound 809]”, under setting [1], the “% Inh @ 0.2 (μM)” value is listed as 103%. Also, under setting [2], the IC50 amounted to 6.9 nM.
As to `COC(=O)c1cccc(S(=O)(=O)N(Cc2ccc(F)c(C(F)(F)F)c2)c2cc3ccccc3s2)c1` [Compound 136, N-(Benzo[b]thiophen-2-yl)-N-(4-fluoro-3-trifluoromethyl-benzyl)-3-carbomethoxy-benzenesulfonamide], under setting [3], the inhibition at 0.2 µM came out at 40%.
Turning to `O=S(=O)(c1ccccc1)N(Cc1ccc(OC(F)(F)F)cc1)c1cc2ccccc2s1` [Compound 58, N-(Benzo[b]thiophen-2-yl)-N-(4-trifluoromethoxy-benzyl)-benzenesulfonamide], the half-maximal inhibitory concentration (IC50) under setting [4] came out at 45.5 nM. Besides, the inhibition at 0.5 µM under setting [5] came out at 98%.
On to `CCCCN(c1sc2ccccc2c1C)S(C)(=O)=O` [Compound 363, N-(Butyl)-N-(3-methyl-benzo[b]thiophen-2-yl)-methanesulfonamide], for which the IC50 under setting [4] was found to be 51 nM. Besides, the inhibition at 0.2 µM under setting [3] worked out at 84%.
Take `Cn1cnc(S(=O)(=O)N(Cc2ccc(F)c(F)c2)c2sc3ccccc3c2Br)c1` [Compound 150, N-(3-Bromo-benzo[b]thiophen-2-yl)-N-(3,4-difluoro-benzyl)-1-methyl-1H-imidazole-4-sulfonamide]: the IC50 under setting [4] worked out at 15.4 nM. Moreover, under setting [5], the inhibition at 0.5 µM was 100%.
Regarding `COC(=O)c1ccc(S(=O)(=O)N(Cc2ccc(OC(F)(F)F)cc2)c2sc3ccccc3c2C2CC2)cc1` [Compound 753, N-(3-Cyclopropyl-benzo[b]thiophen-2-yl)-N-(4-trifluoromethoxy-benzyl)-4-carbomethoxy-benzenesulfonamide], under setting [4], the IC50 stood at 27.2 nM. Also, under setting [3], the inhibition at 0.2 µM was determined as 69%.
Turning to `COC(=O)CN(c1sc2ccccc2c1Br)S(=O)(=O)c1ccccc1` [Compound 243, N-(3-Bromo-benzo[b]thiophen-2-yl)-N-(carbomethoxymethyl)-benzenesulfonamide], the IC50 under setting [4] is 38 nM. Besides, under setting [3], the inhibition at 0.2 µM turned out to be 98%.
For `CCS(=O)(=O)N(Cc1ccc(F)c(OC)c1)c1sc2ccccc2c1C(C)=O` [Compound 837, N-(3-Acetyl-benzo[b]thiophen-2-yl)-N-(4-fluoro-3-methoxy-benzyl)-ethanesulfonamide], the inhibition at 0.2 µM under setting [1] was 103%. In addition, under setting [2], the concentration for half-maximal inhibition (IC50) came out at 15 nM.
Consider `COc1c(Cl)ccc2c(Cl)c(N(Cc3ccc(F)c(F)c3)S(=O)(=O)c3ccccc3)sc12` [Compound 144, N-(3,6-Dichloro-7-methoxy-benzo[b]thiophen-2-yl)-N-(3,4-difluoro-benzyl)-benzenesulfonamide], for which the inhibition at 0.5 µM under setting [5] amounted to 62%.
For the compound `CCCCN(c1cc2ccccc2s1)S(=O)(=O)c1ccc(N(C)C)cc1` [Compound 444, N-(Benzo[b]thiophen-2-yl)-N-(butyl)-4-dimethylamino-benzenesulfonamide], under setting [4], the IC50 came to 122 nM. For the same compound, under setting [3], the inhibition at 0.2 µM worked out at 92%.
Consider `CN(C)S(=O)(=O)N(Cc1ccc(F)c(C(F)(F)F)c1)c1sc2ccccc2c1Br` [Compound 317, N-(3-Bromo-benzo[b]thiophen-2-yl)-N-(4-fluoro-3-trifluoromethyl-benzyl)-N′,N′-dimethlysulfamide], for which the half-maximal inhibitory concentration (IC50) under setting [4] was 17 nM. In addition, the “% Inh @ 0.2 (μM)” value under setting [3] came out at 102%.
With `Nc1ccc(S(=O)(=O)N(CCC(F)(F)F)c2cc3ccccc3s2)cc1Cl` [Compound 586, 4-Amino-N-(benzo[b]thiophen-2-yl)-3-chloro-N-(3,3,3-trifluoro-propyl)-benzenesulfonamide], the IC50 under setting [4] worked out at 34.6 nM. Besides, under setting [3], the inhibition at 0.2 µM was 100%.
The corresponding values for `CCS(=O)(=O)N(Cc1ccc(F)c(C(F)(F)F)c1)c1sc2ccccc2c1CO` [Compound 217, N-(4-Fluoro-3-trifluoromethyl-benzyl)-N-(3-hydroxymethyl-benzo[b]thiophen-2-yl)-ethanesulfonamide] are 3 nM and 88%.
The corresponding values for `COc1ccc(S(=O)(=O)N(CCCC(F)(F)F)c2sc3ccccc3c2C)c2cccnc12` [Compound 356, N-(3-Methyl-benzo[b]thiophen-2-yl)-N-(4,4,4-trifluoro-butyl)-8-methoxyquinolin-5-ylsulfonamide] are 41.6 nM and 93%.
For the compound `Cc1c(N(Cc2cc(Cl)ccc2Cl)S(=O)(=O)c2ccc(C(=O)O)cc2)sc2ccccc12` [Compound 520, N-(3-Methyl-benzo[b]thiophen-2-yl)-N-(2,5-dichloro-benzyl)-4-carboxy-benzenesulfonamide], under setting [3], the inhibition at 0.2 µM was 102%.
Consider `CCCCN(c1cc2ccccc2s1)S(=O)(=O)c1ccc(-c2nnn[nH]2)cc1` [Compound 449, N-(Benzo[b]thiophen-2-yl)-N-(butyl)-4-(1H-tetrazol-5-yl)-benzenesulfonamide], for which the IC50 under setting [4] amounted to 88 nM. The inhibition at 0.2 µM under setting [3] is 97%.
Take `O=C(O)c1ccccc1S(=O)(=O)N(Cc1ccc(F)c(C(F)(F)F)c1)c1sc2ccccc2c1Cl` [Compound 297, N-(3-Chloro-benzo[b]thiophen-2-yl)-N-(4-fluoro-3-trifluoromethyl-benzyl)-2-carboxy-benzenesulfonamide]: the inhibition at 0.2 µM under setting [3] amounted to 21%.
Take `CS(=O)(=O)Nc1ccc(S(=O)(=O)N(CCC(F)(F)F)c2sc3ccccc3c2Br)cc1` [Compound 677, N-(3-Bromo-benzo[b]thiophen-2-yl)-N-(3,3,3-trifluoro-propyl)-4-methanesulfonylamino-benzenesulfonamide]: under setting [4], the IC50 was found to be 24.6 nM. In addition, under setting [3], the inhibition at 0.2 µM amounted to 101%.
Turning to `O=S(=O)(c1cccnc1)N(CCCC(F)(F)F)c1sc2ccccc2c1Br` [Compound 407, N-(3-Bromo-benzo[b]thiophen-2-yl)-N-(4,4,4-trifluoro-butyl)-pyridin-3-yl-sulfonamide], the IC50 under setting [4] is 43 nM. In addition, under setting [3], the inhibition at 0.2 µM was found to be 96%.
As to `COc1ccc2c(Br)c(N(Cc3ccc(F)c(F)c3)S(=O)(=O)c3cccnc3)sc2c1` [Compound 141, N-(3-Bromo-6-methoxy-benzo[b]thiophen-2-yl)-N-(3,4-difluoro-benzyl)-pyridin-3-yl-sulfonamide], the inhibition at 0.2 µM under setting [3] was found to be 18%.
In the case of `CN(C)CCN(c1sc2ccccc2c1Br)S(=O)(=O)c1ccccc1` [Compound 238, N-(3-Bromo-benzo[b]thiophen-2-yl)-N-(2-dimethylamino-ethyl)-benzenesulfonamide], the 50% inhibitory concentration (IC50) under setting [4] amounted to 93 nM. Moreover, under setting [5], the inhibition at 0.5 µM is 96%.
Consider `Cc1c(N(Cc2cccnc2)S(=O)(=O)c2ccc(C(=O)O)cc2)sc2ccccc12` [Compound 495, N-(3-Methyl-benzo[b]thiophen-2-yl)-N-(pyridin-3-ylmethyl)-4-carboxy-benzenesulfonamide], for which the IC50 under setting [4] was found to be 55 nM. Besides, the “% Inh @ 0.2 (μM)” value under setting [3] turned out to be 98%.
As for `CNS(=O)(=O)N(Cc1ccc(F)c(C(F)(F)F)c1)c1sc2ccccc2c1C` [Compound 533, N-(4-Fluoro-3-trifluoromethyl-benzyl)-N-(3-methylbenzo[b]thiophen-2-yl)-N′-methyl-sulfamide], the IC50 under setting [4] turned out to be 32 nM. Also, the inhibition at 0.2 µM under setting [3] came to 102%.
Turning to `COC(=O)c1ccc(S(=O)(=O)N(CCC2CC2)c2sc3ccccc3c2C(C)C)cc1` [Compound 564, N-(2-Cyclopropyl-ethyl)-N-(3-isopropyl-benzo[b]thiophen-2-yl)-4-carbomethoxy-benzenesulfonamide], the inhibition at 0.2 µM under setting [3] turned out to be 57.7%.
As to `Cc1c(N(Cc2ccc(F)c(C(F)(F)F)c2)S(=O)(=O)c2ccc(C3=NOS(=O)N3)cc2)sc2ccccc12` (stereo not drawn) [Compound 543, N-(3-Methyl-benzo[b]thiophen-2-yl)-N-(4-fluoro-3-trifluoromethyl-benzyl)-4-(3H-[1,2,3,5]oxathiadiazole-2-oxide)-benzenesulfonamide], the half-maximal inhibitory concentration (IC50) under setting [4] is 7.2 nM. Under setting [3], the “% Inh @ 0.2 (μM)” value amounted to 104.46%.
Take `O=S(=O)(c1ccsc1)N(Cc1ccc(F)c(C(F)(F)F)c1)c1sc2ccccc2c1Br` [Compound 186, N-(3-Bromo-benzo[b]thiophen-2-yl)-N-(4-fluoro-3-trifluoromethyl-benzyl)-thien-3-yl-sulfonamide]: the IC50 under setting [4] came out at 3.7 nM. The inhibition at 0.2 µM under setting [3] amounted to 103%.
As for `O=[N+]([O-])c1ccc(S(=O)(=O)N(CCC(F)(F)F)c2cc3ccccc3s2)cc1` [Compound 498, N-(Benzo[b]thiophen-2-yl)-4-nitro-N-(3,3,3-trifluoro-propyl)-benzenesulfonamide], under setting [3], the inhibition at 0.2 µM was determined as 41%.
For `O=S(=O)(c1cccnc1)N(Cc1ccc(OC(F)(F)F)cc1)c1sc2ccccc2c1Br` [Compound 323, N-(3-Bromo-benzo[b]thiophen-2-yl)-N-(4-trifluoromethoxy-benzyl)-pyridin-3-ylsulfonamide], the IC50 under setting [4] was 10 nM. Moreover, the inhibition at 0.2 µM under setting [3] was 102%.
The corresponding values for `CCS(=O)(=O)N(CC(F)F)c1sc2ccccc2c1C` [Compound 111, N-(2,2-Difluoro-ethyl)-N-(3-methyl-benzo[b]thiophen-2-yl)-ethanesulfonamide] are 92 nM and 68%.
Take `N#Cc1cccc(S(=O)(=O)N(CCCC(F)(F)F)c2cc3ccccc3s2)c1` [Compound 574, N-(Benzo[b]thiophen-2-yl)-N-(4,4,4-trifluoro-butyl)-3-cyano-benzenesulfonamide]: under setting [3], the inhibition at 0.2 µM was found to be 16%.
Take `O=S(=O)(c1cccnc1)N(CCCC(F)(F)F)c1sc2ccccc2c1Cl` [Compound 408, N-(3-Chloro-benzo[b]thiophen-2-yl)-N-(4,4,4-trifluoro-butyl)-3-pyridin-3-yl-sulfonamide]: under setting [4], the IC50 turned out to be 122 nM. Also, the “% Inh @ 0.2 (μM)” value under setting [3] is recorded as 78%.
